From patent US10941113B2, “Sulfamoyl-arylamides and the use thereof as medicaments for the treatment of hepatitis B” (Janssen Sciences Ireland UC, priority 2013, dated 2021)

Legend:
Assay type in all cases: cell-based
HBV [1] = assay: Anti-HBV activity, HepG2.2.15 stable transfected cell line, HBV DNA from secreted virions by realtime PCR; settings: Hepatitis B virus, 144 h, HepG2.2.15 cells, 6 days of treatment
HBV [2] = assay: Anti-HBV activity, HepG2.117 inducible HBV producing cell line (Tet-off), intracellular HBV DNA by realtime PCR; settings: Hepatitis B virus, 72 h, HepG2.117 cells, 3 days of treatment
[3] = Cytotoxicity in HepG2 cells, Resazurin assay; settings: human, incubated 4 days, Resazurin viability

Structure (SMILES)	EC50 (HBV [1])	EC50 (HBV [2])	CC50 at 4 days [3]
Cc1cc(NC(=O)c2cccc(S(=O)(=O)NC(C)CCCC(C)(C)O)c2)ccc1F (racemic) [Compound 21]	170 nM	1710 nM	> 25000 nM
Cc1cc(NC(=O)c2cccc(S(=O)(=O)NC(C)(C)CCO)c2)ccc1F [Compound 15]	220 nM	320 nM	> 25000 nM
COC(C)(C)CC(C)NS(=O)(=O)c1cccc(C(=O)Nc2ccc(F)c(C)c2)c1 (stereo not drawn) [Compound 28]	270 nM	1410 nM	> 25000 nM
COC(=O)CCC(C)NS(=O)(=O)c1cccc(C(=O)Nc2ccc(F)c(C)c2)c1 (stereo not drawn) [Compound 8]	1400 nM	2800 nM	> 25000 nM
Cc1cc(NC(=O)c2cc(S(=O)(=O)N[C@H](C)CO)ccc2C)ccc1F [Compound 38]	160 nM	180 nM	> 25000 nM
Cc1cc(NC(=O)c2cccc(S(=O)(=O)N[C@@H](C)C(=O)N(C)C)c2)ccc1F [Compound 35]	2700 nM	3620 nM	> 25000 nM
Cc1cc(NC(=O)c2cccc(S(=O)(=O)N[C@H](C)CNC(=O)OC(C)(C)C)c2)ccc1F [Compound 18]	200 nM	190 nM	> 25000 nM
Cc1cc(NC(=O)c2cccc(S(=O)(=O)N[C@@H](C)CO)c2)ccc1F [Compound 4b]	400 nM	940 nM	> 25000 nM
Cc1cc(NC(=O)c2cccc(S(=O)(=O)NC(C)CCO)c2)ccc1F (stereo not drawn) [Compound 13]	210 nM	710 nM	> 25000 nM
COC(=O)NCC(C)NS(=O)(=O)c1cccc(C(=O)Nc2ccc(F)c(C)c2)c1 (stereo not drawn) [Compound 1]	130 nM	370 nM	> 25000 nM
Cc1cc(NC(=O)c2cccc(S(=O)(=O)N[C@H](C)CS(C)(=O)=O)c2)ccc1F [Compound 42]	250 nM	150 nM	> 25000 nM
COCC(C)(C)NS(=O)(=O)c1cccc(C(=O)Nc2ccc(F)c(C)c2)c1 [Compound 34]	540 nM	640 nM	> 25000 nM
Cc1cc(NC(=O)c2cccc(S(=O)(=O)N[C@H](C)CC#N)c2)ccc1F (racemic) [Compound 10a]	100 nM	140 nM	> 25000 nM
COCC(C)NS(=O)(=O)c1cccc(C(=O)Nc2ccc(F)c(C)c2)c1 (stereo not drawn) [Compound 5]	240 nM	840 nM	> 25000 nM
COC(=O)NC[C@@H](C)NS(=O)(=O)c1cccc(C(=O)Nc2ccc(F)c(C)c2)c1 [Compound 1a]	180 nM	110 nM	> 25000 nM
Cc1cc(NC(=O)c2cccc(S(=O)(=O)N[C@@H](C)CNC(=O)OC(C)(C)C)c2)ccc1F [Compound 19]	740 nM	500 nM	> 25000 nM
Cc1cc(NC(=O)c2cccc(S(=O)(=O)NC(C)CCC(=O)N(C)C)c2)ccc1F (stereo not drawn) [Compound 6]	180 nM	110 nM	> 25000 nM
Cc1cc(NC(=O)c2cccc(S(=O)(=O)NC(C)C(C)(C)O)c2)ccc1F (stereo not drawn) [Compound 30]	260 nM	170 nM	> 25000 nM
Cc1cc(NC(=O)c2cccc(S(=O)(=O)N[C@H](C)C(=O)N(C)C)c2)ccc1F [Compound 40]	2280 nM	2660 nM	> 25000 nM
CNCC(C)NS(=O)(=O)c1cccc(C(=O)Nc2ccc(F)c(C)c2)c1 (stereo not drawn) [Compound 2]	9400 nM	2400 nM	> 25000 nM
Cc1cc(NC(=O)c2cccc(S(=O)(=O)NC(C)CC(=O)N(C)C)c2)ccc1F (stereo not drawn) [Compound 39]	1050 nM	860 nM	> 25000 nM
Cc1cc(NC(=O)c2cccc(S(=O)(=O)N[C@H](C)CO)c2)ccc1F [Compound 4a]	210 nM	260 nM	> 25000 nM
Cc1cc(NC(=O)c2cccc(S(=O)(=O)NC(C)C(C)CO)c2)ccc1F (stereo not drawn) [Compound 25]	250 nM	570 nM	> 25000 nM
Cc1cc(NC(=O)c2cccc(S(=O)(=O)NC(C)CC#N)c2)ccc1F (racemic) [Compound 10]	220 nM	190 nM	> 25000 nM

Structure (SMILES)	EC50 (HBV [1])	EC50 (HBV [2])	CC50 at 4 days [3]
Cc1cc(NC(=O)c2cccc(S(=O)(=O)N[C@@H](C)C(N)=O)c2)ccc1F [Compound 23]	1100 nM	1430 nM	> 25000 nM
Cc1cc(NC(=O)c2cccc(S(=O)(=O)N[C@H](C)C(N)=O)c2)ccc1F [Compound 22]	550 nM	500 nM	> 25000 nM
COCC(C)(CO)NS(=O)(=O)c1cccc(C(=O)Nc2ccc(F)c(C)c2)c1 (stereo not drawn) [Compound 31]	480 nM	470 nM	> 25000 nM
COC(=O)NC[C@H](C)NS(=O)(=O)c1cccc(C(=O)Nc2ccc(F)c(C)c2)c1 [Compound 1b]	1850 nM	1570 nM	> 25000 nM
CCC[C@@H](CO)NS(=O)(=O)c1cccc(C(=O)Nc2ccc(F)c(C)c2)c1 [Compound 12]	650 nM	820 nM	> 25000 nM
Cc1cc(NC(=O)c2cccc(S(=O)(=O)N[C@H](CO)C(C)C)c2)ccc1F [Compound 11]	550 nM	830 nM	> 25000 nM
Cc1cc(NC(=O)c2cccc(S(=O)(=O)NCC(C)(C)C(=O)O)c2)ccc1F [Compound 37]	2680 nM	3030 nM	> 25000 nM
Cc1cc(NC(=O)c2cccc(S(=O)(=O)NCCS(C)(=O)=O)c2)ccc1F [Compound 32]	190 nM	640 nM	> 25000 nM
Cc1cc(NC(=O)c2cccc(S(=O)(=O)NC(C)CO)c2)ccc1F (stereo not drawn) [Compound 4, N-(4-fluoro-3-methyl-phenyl)-3-[(2-hydroxy-1-methyl-ethyl)sulfamoyl]benzamide]	280 nM	320 nM	> 25000 nM
C#CC(C)(C)NS(=O)(=O)c1cccc(C(=O)Nc2ccc(F)c(C)c2)c1 [Compound 16]	190 nM	590 nM	> 25000 nM
Cc1cc(NC(=O)c2cccc(S(=O)(=O)NC(C)CN(C)C)c2)ccc1F (stereo not drawn) [Compound 3]	7500 nM	1100 nM	> 25000 nM
Cc1cc(NC(=O)c2cccc(S(=O)(=O)NC(C)C(C)O)c2)ccc1F (stereo not drawn) [Compound 33]	320 nM	260 nM	> 25000 nM
Cc1cc(NC(=O)c2cccc(S(=O)(=O)NC(C)(C)CC(C)O)c2)ccc1F (stereo not drawn) [Compound 36]	270 nM	150 nM	> 25000 nM
Cc1cc(NC(=O)c2cccc(S(=O)(=O)NC(C)(C)CO)c2)ccc1F [Compound 14]	380 nM	530 nM	> 25000 nM
CC(=O)CC(C)NS(=O)(=O)c1cccc(C(=O)Nc2ccc(F)c(C)c2)c1 (stereo not drawn) [Compound 29]	190 nM	230 nM	> 25000 nM
COC(=O)N(C)CC(C)NS(=O)(=O)c1cccc(C(=O)Nc2ccc(F)c(C)c2)c1 (stereo not drawn) [Compound 20]	550 nM	560 nM	> 25000 nM
COCCC(C)NS(=O)(=O)c1cccc(C(=O)Nc2ccc(F)c(C)c2)c1 (stereo not drawn) [Compound 24]	210 nM	1370 nM	> 25000 nM
CNC(=O)CCC(C)NS(=O)(=O)c1cccc(C(=O)Nc2ccc(F)c(C)c2)c1 (stereo not drawn) [Compound 7]	540 nM	240 nM	> 25000 nM
CNC(=O)[C@@H](C)NS(=O)(=O)c1cccc(C(=O)Nc2ccc(F)c(C)c2)c1 [Compound 41]	2220 nM	1350 nM	> 25000 nM
CC(=O)NCC(C)NS(=O)(=O)c1cccc(C(=O)Nc2ccc(F)c(C)c2)c1 (stereo not drawn) [Compound 9]	1300 nM	560 nM	> 25000 nM
COCC(C)(CCO)NS(=O)(=O)c1cccc(C(=O)Nc2ccc(F)c(C)c2)c1 (stereo not drawn) [Compound 27]	1160 nM	960 nM	> 25000 nM
CCC(C)(CO)NS(=O)(=O)c1cccc(C(=O)Nc2ccc(F)c(C)c2)c1 (stereo not drawn) [Compound 26]	390 nM	340 nM	> 25000 nM
Cc1cc(NC(=O)c2cccc(S(=O)(=O)NCCCC(=O)N(C)C)c2)ccc1F [Compound 17]	260 nM	610 nM	> 25000 nM
